Measured values reported in ChEMBL document CHEMBL4831532.
Activity calls are given as the source filed them. The calls are words filed in the database; no cut-off is given here.

What was measured:
SARS-CoV-2 [1] = assay: microbe, parasite or virus in culture; details: Severe acute respiratory syndrome coronavirus 2, JPN/TY/WK-251, Vero C1008, 72 h
[2] = Inhibition of SARS-CoV-2 3CL protease using HiyteFluor-488ESATL-QSGLRKAK-(QXL)-NH2 fluorogenic peptide as substrate preincubated for 15 mins followed by substrate addition and measured after 30 mins by FRET assay; set-up: species or system Severe acute respiratory syndrome coronavirus 2
[3] = Binding affinity to SARS-CoV-2 3CL protease; set-up: species or system Severe acute respiratory syndrome coronavirus 2
SARS-CoV-2 [4] = type: functional, organism-based; details: Severe acute respiratory syndrome coronavirus 2; JPN/TY/WK-251; Vero E6; dose 10.0 µM, time 3.0 day
SARS-CoV-2 [5] = type: functional
SARS-CoV-2 [6] = type: functional, Severe acute respiratory syndrome coronavirus 2, JPN/TY/WK-251, Vero E6; details: dose 1-100 µM; time 72 hrs; at 1 to 100 µM
Vero C1008 = assay: Cytotoxicity against African green monkey Vero E6 cells incubated for 3 days; type: cell-based; details: chlorocebus sabaeus, vero c1008, 72 h; time 3 day

SMILES	EC50 (SARS-CoV-2 [1]) [µM]	further results
C=CCc1cn(CC=C)c2cccc(C(=O)Oc3cncc(Cl)c3)c12	11.5	–
Cc1ncc(Cl)cc1OC(=O)c1cccc2[nH]ccc12	> 100	IC50 [2]: > 100 µM
O=C(Nc1cncc(Cl)c1)c1cccc2[nH]ccc12	> 100	–
COc1cccc2[nH]c(C(=O)Oc3cncc(Cl)c3)cc12	8.1	–
O=C(Oc1cncc(Cl)c1)c1cccc2ncoc12	> 100	–
Cc1nc2c(C(=O)Oc3cncc(Cl)c3)cccc2[nH]1	57.1	–
COc1cccc2[nH]c(C(=O)N[C@@H](CC(C)C)C(=O)N[C@@H](C[C@@H]3CCNC3=O)C(=O)c3nc4ccccc4s3)cc12	–	Ki [3]: 0.0176 µM
O=C(Oc1cncc(Cl)c1)c1cc(F)cc2[nH]ccc12	14	–
O=C(Nc1cccc(Cl)c1)c1cccc2[nH]ccc12	> 100	IC50 [2]: 100 µM
CCC(CC)COC(=O)[C@H](C)N[P@](=O)(OC[C@H]1O[C@@](C#N)(c2ccc3c(N)ncnn23)[C@H](O)[C@@H]1O)Oc1ccccc1	–	Activity (SARS-CoV-2 [4]): Active; Activity (SARS-CoV-2 [5]; Severe acute respiratory syndrome coronavirus 2, JPN/TY/WK-251, Vero E6, dose 100.0 µM, time 3.0 day): Active; Activity (SARS-CoV-2 [6]): 100%
Cc1ccc2[nH]ccc2c1C(=O)Oc1cncc(Cl)c1	> 100	–
O=C(Oc1cncc(Cl)c1)c1cccc2c1CCN2	15	IC50 [2]: 0.32 µM; Activity (SARS-CoV-2 [4]): Active; Activity (SARS-CoV-2 [5]; dose 100 µM, time 3 day): 100%
Cc1cc(C(=O)Oc2cncc(Cl)c2)c2cc[nH]c2c1	3.1	–
Cc1c[nH]c2cccc(C(=O)Oc3cncc(Cl)c3)c12	56.7	–
Cc1ncc(OC(=O)c2cccc3[nH]ccc23)cc1Cl	30	–
O=C(Oc1cncc(Cl)c1)c1ccc2[nH]ccc2c1	43.7	–
Cc1c(Cl)cncc1OC(=O)c1cccc2[nH]ccc12	19.3	–
C=CCn1ccc2c(C(=O)Oc3cncc(Cl)c3)cccc21	15	–
O=C(Oc1cncc(Cl)c1)c1cccc2c1OCCN2	> 100	–
Cc1ncc(OC(=O)c2cccc3[nH]cnc23)cc1Cl	57	–
O=C(Oc1cncc(Cl)c1)c1ccc2c(ccn2S(=O)(=O)c2cccc([N+](=O)[O-])c2)c1	69.8	–
O=C(Oc1cncc(Cl)c1)c1cccc2[nH]cnc12	> 100	–
O=C(Oc1cncc(Cl)c1)c1cccc2[nH]ccc12	–	CC50 (Vero C1008): > 100 µM; Activity (SARS-CoV-2 [4]): Active; Activity (SARS-CoV-2 [5]; dose 100 µM, time 3 day): 100%; Activity (SARS-CoV-2 [6]): 100%
